ChEMBL document CHEMBL4196004, “Discovery of novel mifepristone derivatives via suppressing KLF5 expression for the treatment of triple-negative breast cancer” (Eur J Med Chem, 2018)
The source made the active and inactive calls. The rule behind the calls is not given here.

Tests used:
SUM149PT [1] = experiment: Antiproliferative activity against human SUM149PT cells after 48 hrs by SRB assay; format: functional, cell-based
HCC1937 [2] = experiment: Antiproliferative activity against human HCC1937 cells after 48 hrs by SRB assay; format: functional, cell-based; details: HCC1937, 48 h
HCC1937 [3] = experiment: Induction of PARP cleavage in human HCC1937 cells after 24 hrs by Western blot analysis; format: functional, cell-based
SUM149PT [4] = experiment: Inhibition of KLF5 expression levels in human SUM149PT cells after 24 hrs by Western blot analysis; format: functional, cell-based
[5] = Cmax in Sprague-Dawley rat at 30 mg/kg administered via oral gavage by HPLC analysis; format: ADME, organism-based; set-up: dose 30 mg/kg, route oral; details: in vivo
SUM149PT [6] = experiment: Induction of PARP cleavage in human SUM149PT cells after 24 hrs by Western blot analysis; format: functional, cell-based
[7] = Tmax in Sprague-Dawley rat at 30 mg/kg administered via oral gavage by HPLC analysis; format: ADME, organism-based; details: in vivo
Rattus norvegicus [8] = experiment: AUC (0 to t) in Sprague-Dawley rat at 30 mg/kg administered via oral gavage by HPLC analysis; format: ADME, organism-based; details: in vivo
HCC1937 [9] = experiment: Inhibition of KLF5 expression levels in human HCC1937 cells after 24 hrs by Western blot analysis; format: functional, cell-based
Rattus norvegicus [10] = experiment: AUC (0 to infinity) in Sprague-Dawley rat at 30 mg/kg administered via oral gavage by HPLC analysis; format: ADME, organism-based; set-up: dose 30 mg/kg, route oral, time infinity; details: in vivo
[11] = Elimination half life in Sprague-Dawley rat at 30 mg/kg administered via oral gavage by HPLC analysis; format: ADME, organism-based; details: in vivo, read-out: beta t1/2 (converted)
Homo sapiens = experiment: Antitumor activity against human UM1 cells implanted in Balb/C nude mouse at 1 mg, ip qd for 4 weeks; format: functional, organism-based
SUM149PT [12] = experiment: Cell cycle arrest in human SUM149PT cells assessed as decrease in cells at S phase at 20 uM after 24 hrs by propidium iodide staining-based flow cytometric analysis; format: functional
SUM149PT [13] = experiment: Cell cycle arrest in human SUM149PT cells assessed as increase in cells at G1 phase at 20 uM after 24 hrs by propidium iodide staining-based flow cytometric analysis; format: functional
Mus musculus [14] = experiment: Toxicity in Balb/C nude mouse implanted with human UM1 cells assessed as loss of body weight at 1 mg, ip qd for 4 weeks; format: organism-based; details: in vivo, 672 h
SUM149PT [15] = experiment: Cell cycle arrest in human SUM149PT cells assessed as increase in cells at G1 phase after 24 hrs by propidium iodide staining-based flow cytometric analysis; format: functional
SUM149PT [16] = experiment: Cell cycle arrest in human SUM149PT cells assessed as decrease in cells at S phase at 5 to 10 uM after 24 hrs by propidium iodide staining-based flow cytometric analysis; format: functional
Mus musculus [17] = experiment: Acute toxicity in KM mouse assessed as loss of body weight at 400 mg/kg, po administered as single dose and measured every 3 days; format: organism-based; details: in vivo, 72 h
Mus musculus [18] = experiment: Acute toxicity in KM mouse assessed as behaviour change at 400 mg/kg, po administered as single dose; format: organism-based; details: in vivo

IC50 (HCC1937 [2]) [µM]	Structure (SMILES)	IC50 (SUM149PT [1]) [µM]	also measured
> 20	CC#C[C@]1(O)CC[C@H]2[C@@H]3CCC4=CC(=O)CCC4=C3[C@@H](c3ccc(N(C)C(=O)c4ccc(-c5ccccc5)cc4)cc3)C[C@@]21C	16	–
> 20	CC#C[C@]1(O)CC[C@H]2[C@@H]3CCC4=CC(=O)CCC4=C3[C@@H](c3ccc(N(C)C)cc3)C[C@@]21C [MIFEPRISTONE]	15	Activity (HCC1937 [3]): Dose-dependent effect; inhibition (SUM149PT [4]): Dose-dependent effect; Cmax [5]: 360 ng/mL; Activity (SUM149PT [6]): Dose-dependent effect; Tmax [7]: 3.38 h; AUCt (Rattus norvegicus [8]): 1.97 mg/L/h; inhibition (HCC1937 [9]): Dose-dependent effect; AUC (Rattus norvegicus [10]): 2420 ng·h/mL; half-life [11]: 3.02 h; Activity (Homo sapiens): Active; Activity (SUM149PT [12]): Active; Activity (SUM149PT [13]): inactive; Activity (Mus musculus [14]): Non-Toxic
> 20	CC#C[C@]1(O)CC[C@H]2[C@@H]3CCC4=CC(=O)CCC4=C3[C@@H](c3ccc(N(C)C(=O)c4ccncc4)cc3)C[C@@]21C	> 20	–
4.2	CC#C[C@]1(O)CC[C@H]2[C@@H]3CCC4=CC(=O)CCC4=C3[C@@H](c3ccc(N(C)C(=O)c4ccc(C(C)(C)C)cc4)cc3)C[C@@]21C	3.5	–
6.1	CC#C[C@]1(O)CC[C@H]2[C@@H]3CCC4=CC(=O)CCC4=C3[C@@H](c3ccc(N(C)C(=O)c4ccc5ccccc5c4)cc3)C[C@@]21C	5	–
6.1	CC#C[C@]1(O)CC[C@H]2[C@@H]3CCC4=CC(=O)CCC4=C3[C@@H](c3ccc(N(C)C(=O)c4ccc(C)c(C)c4)cc3)C[C@@]21C	5.6	–
> 20	CC#C[C@]1(O)CC[C@H]2[C@@H]3CCC4=CC(=O)CCC4=C3[C@@H](c3ccc(NC)cc3)C[C@@]21C [DESMETHYLMIFEPRISTONE]	> 20	–
9.7	CC#C[C@]1(O)CC[C@H]2[C@@H]3CCC4=CC(=O)CCC4=C3[C@@H](c3ccc(N(C)C(=O)c4ccc(Cl)cc4)cc3)C[C@@]21C	16.2	–
9	CC#C[C@]1(O)CC[C@H]2[C@@H]3CCC4=CC(=O)CCC4=C3[C@@H](c3ccc(N(C)C(=O)c4cccc(C)c4)cc3)C[C@@]21C	5	–
14.7	CC#C[C@]1(O)CC[C@H]2[C@@H]3CCC4=CC(=O)CCC4=C3[C@@H](c3ccc(N(C)C(=O)c4ccccc4)cc3)C[C@@]21C	10.5	–
10.6	CC#C[C@]1(O)CC[C@H]2[C@@H]3CCC4=CC(=O)CCC4=C3[C@@H](c3ccc(N(C)C(=O)c4cccc(Cl)c4)cc3)C[C@@]21C	14.3	–
9.1	CC#C[C@]1(O)CC[C@H]2[C@@H]3CCC4=CC(=O)CCC4=C3[C@@H](c3ccc(N(C)C(=O)c4ccc(C)cc4)cc3)C[C@@]21C	5	–
> 20	CC#C[C@]1(O)CC[C@H]2[C@@H]3CCC4=CC(=O)CCC4=C3[C@@H](c3ccc(N(C)C(C)=O)cc3)C[C@@]21C	> 20	–
9	CC#C[C@]1(O)CC[C@H]2[C@@H]3CCC4=CC(=O)CCC4=C3[C@@H](c3ccc(N(C)C(=O)Cc4ccccc4)cc3)C[C@@]21C	7	–
17.4	CC#C[C@]1(O)CC[C@H]2[C@@H]3CCC4=CC(=O)CCC4=C3[C@@H](c3ccc(N(C)C(=O)c4ccccc4Cl)cc3)C[C@@]21C	> 20	–
> 20	CC#C[C@]1(O)CC[C@H]2[C@@H]3CCC4=CC(=O)CCC4=C3[C@@H](c3ccc(N(C)C(=O)c4ccccn4)cc3)C[C@@]21C	> 20	–
> 20	CC#C[C@]1(O)CC[C@H]2[C@@H]3CCC4=CC(=O)CCC4=C3[C@@H](c3ccc(N(C)S(=O)(=O)c4ccc(C)cc4)cc3)C[C@@]21C	> 20	–
4.2	CC#C[C@]1(O)CC[C@H]2[C@@H]3CCC4=CC(=O)CCC4=C3[C@@H](c3ccc(N(C)C(=O)c4ccc(C(C)C)cc4)cc3)C[C@@]21C	4.2	–

Second part, the compound before the results:

Structure (SMILES)	IC50 (HCC1937 [2]) [µM]	IC50 (SUM149PT [1]) [µM]	also measured
CC#C[C@]1(O)CC[C@H]2[C@@H]3CCC4=CC(=O)CCC4=C3[C@@H](c3ccc(N(C)C(=O)c4nccs4)cc3)C[C@@]21C	–	> 20	–
CC#C[C@]1(O)CC[C@H]2[C@@H]3CCC4=CC(=O)CCC4=C3[C@@H](c3ccc(N(C)C(=O)c4cnccn4)cc3)C[C@@]21C	–	> 20	–
CC#C[C@]1(O)CC[C@H]2[C@@H]3CCC4=CC(=O)CCC4=C3[C@@H](c3ccc(N(C)C(=O)c4ccc(OC)c(Cl)c4)cc3)C[C@@]21C	–	> 20	–
CC#C[C@]1(O)CC[C@H]2[C@@H]3CCC4=CC(=O)CCC4=C3[C@@H](c3ccc(N(C)C(=O)c4ccc(F)c(Cl)c4)cc3)C[C@@]21C	–	9	–
CC#C[C@]1(O)CC[C@H]2[C@@H]3CCC4=CC(=O)CCC4=C3[C@@H](c3ccc(N(C)C(=O)c4cc(Cl)ccc4F)cc3)C[C@@]21C	–	> 20	–
CC#C[C@]1(O)CC[C@H]2[C@@H]3CCC4=CC(=O)CCC4=C3[C@@H](c3ccc(N(C)C(=O)c4ccc(OC)cc4)cc3)C[C@@]21C	–	12	–
CC#C[C@]1(O)CC[C@H]2[C@@H]3CCC4=CC(=O)CCC4=C3[C@@H](c3ccc(N(C)C(=O)c4ccc(Cl)c(Cl)c4)cc3)C[C@@]21C	7.9	3.6	Activity (HCC1937 [3]): Dose-dependent effect; Activity (SUM149PT [15]): Dose-dependent effect; inhibition (SUM149PT [4]): Dose-dependent effect; Cmax [5]: 550 ng/mL; Activity (SUM149PT [6]): Dose-dependent effect; Tmax [7]: 2.17 h; Activity (SUM149PT [16]): Active; AUCt (Rattus norvegicus [8]): 2.45 mg/L/h; inhibition (HCC1937 [9]): Dose-dependent effect; Activity (Mus musculus [17]): Non-Toxic; AUC (Rattus norvegicus [10]): 2910 ng·h/mL; half-life [11]: 2.88 h; Activity (Homo sapiens): Active; Activity (Mus musculus [18]): Non-Toxic; Activity (Mus musculus [14]): Non-Toxic
CC#C[C@]1(O)CC[C@H]2[C@@H]3CCC4=CC(=O)CCC4=C3[C@@H](c3ccc(N(C)C(=O)c4cc(Cl)cc(Cl)c4)cc3)C[C@@]21C	–	9	–
COc1cccc2c1C(=O)c1c(O)c3c(c(O)c1C2=O)C[C@@](O)(C(=O)CO)C[C@@H]3O[C@H]1C[C@H](N)[C@H](O)[C@H](C)O1 [DOXORUBICIN]	0.44	0.36	–
CC#C[C@]1(O)CC[C@H]2[C@@H]3CCC4=CC(=O)CCC4=C3[C@@H](c3ccc(N(C)S(=O)(=O)c4ccccc4)cc3)C[C@@]21C	> 20	> 20	–
CC#C[C@]1(O)CC[C@H]2[C@@H]3CCC4=CC(=O)CCC4=C3[C@@H](c3ccc(N(C)C(=O)c4ccc(Cl)c(F)c4)cc3)C[C@@]21C	–	> 20	–
CC#C[C@]1(O)CC[C@H]2[C@@H]3CCC4=CC(=O)CCC4=C3[C@@H](c3ccc(N(C)C(=O)c4cccs4)cc3)C[C@@]21C	–	12.5	–
CC#C[C@]1(O)CC[C@H]2[C@@H]3CCC4=CC(=O)CCC4=C3[C@@H](c3ccc(N(C)C(=O)c4ccc(C)c(Cl)c4)cc3)C[C@@]21C	–	4.7	–
CC#C[C@]1(O)CC[C@H]2[C@@H]3CCC4=CC(=O)CCC4=C3[C@@H](c3ccc(N(C)C(=O)c4ccc(Cl)c(C(F)(F)F)c4)cc3)C[C@@]21C	–	> 20	–
CC#C[C@]1(O)CC[C@H]2[C@@H]3CCC4=CC(=O)CCC4=C3[C@@H](c3ccc(N(C)C(=O)c4cncs4)cc3)C[C@@]21C	–	> 20	–
CC#C[C@]1(O)CC[C@H]2[C@@H]3CCC4=CC(=O)CCC4=C3[C@@H](c3ccc(N(C)C(=O)c4cccc(OC)c4)cc3)C[C@@]21C	–	18	–
CC#C[C@]1(O)CC[C@H]2[C@@H]3CCC4=CC(=O)CCC4=C3[C@@H](c3ccc(N(C)C(=O)c4ccccc4OC)cc3)C[C@@]21C	–	> 20	–
